Results from patent US12461078B2, “Compounds for use in system suitability testing of inert LC systems and columns” (priority 2020, dated 2025).

Columns and labels:
[1] = Hydrolytic and storage stability of nucleotide analog; type: physicochemical
[2] = cited from earlier work

## Nc1ncnc2c1ncn2[C@@H]1O[C@H](COP(=O)(O)CP(=O)(O)O)[C@@H](O)[C@H]1O [AMPcP, Adenosine 5′-(α, β-methylene)diphosphate]
[1]
  resistance to hydrolysis / storage stability: resistant to hydrolysis and be stable for long-term storage and repeat use
[2]
  Log P: −4.8

## Nc1ncnc2c1ncn2[C@@H]1O[C@H](COP(=O)(O)OP(=O)(O)OP(=O)(O)O)[C@@H](O)[C@H]1O [ATP, adenosine-5′-triphosphate]
[2]
  Log P: −5.5
